Reference: patent publication US20240350493A1 (Kadmon Corporation, LLC, priority 2022, published 2024)
Converted amounts (≈) assume the structure as drawn. “Also recorded” adds a separate entry of the source. Like-named read-outs stand apart in the source and are kept apart here.

Columns and labels:
CYP3A4 = CYP3A4 (Homo sapiens, UniProt P08684); assay: incubations with recombinant enzymes; type: in vitro ADME
CYP2D6 [1] = molecular target: T1, CYP2D6 (Homo sapiens, UniProt P10635); assay: incubations with recombinant enzymes; type: in vitro ADME
CYP2C8 = CYP2C8 (Homo sapiens, UniProt P10632); assay: incubations with recombinant enzymes; type: in vitro ADME
CYP1A2 [2] = molecular target: T2, CYP1A2 (Homo sapiens, UniProt P05177); assay: incubations with recombinant enzymes; type: in vitro ADME
pH-dependent solubility = type: physicochemical
healthy male subjects = assay: phase I drug-drug interaction study, safety and tolerability (Example 1); type: in vivo, human
From the text: This was a single center, non-randomized, DDI study in 35 (Part 1) and 38 (Part 2) healthy males. The key inclusion criterion was males aged 18 to 55 years (inclusive). […] In Part 2, co-administration with omeprazole was studied. The study design is illustrated in FIG. 1.
At least a 2-to 8-day washout occurred between each period to account for a minimum of 5 half-lives of the active moieties dosed in the preceding period.
Safety and tolerability of belumosudil was the secondary endpoint of the study and was evaluated by AEs, vital signs, physical examinations, electrocardiograms (ECGs), and clinical laboratory tests. All subjects who received at least one dose of belumosudil or perpetrator compound were included in the safety population.

[3] = food effect study, 5 × 100 mg capsules (KD025-105); type: in vivo, human; settings: for AUC(0-t) / AUC(0-inf) / Cmax / Tmax / half-life: male, human, plasma, oral, 500 mg, 5 × 100 mg capsules; for Tmax: read-out: Tmax, median (range)
Procedure: Both studies were single-center, open-label, randomized, single dose crossover studies in healthy males.
Water was permitted ad libitum except for 1 hour pre-and post-dose.
In both studies, serial blood samples for PK analysis were collected at pre-dose and 1, 2, 4, 6, 8, 12, 16, 24, and 36 hours post-dose. An additional sample at 30 hours post-dose was collected in the first study; additional samples were collected 3, 5, and 48 hours post-dose in the second study. Blood samples (5-6 mL per sample) were collected in K3EDTA tubes on ice and were processed within 30 minutes of collection, then frozen at approximately-70 to −80° C. shortly after collection.
Sample preparation was performed by protein precipitation.
Statistical analyses were performed in SAS using the PROC MIXED procedure and the Restricted Maximum Likelihood estimation method. In both studies, the presence of a food effect was evaluated by a formal statistical analysis on natural log-transformed AUC and Cmax using mixed effect modeling techniques. The model included treatment, period, and sequence as fixed effects and subject nested within sequence as a random effect. Adjusted geometric mean ratios (GMRs) and their 90% confidence intervals (CIs) were calculated for fed (test) versus fasted (reference) treatments. The absence of a food effect was to be concluded if the 90% CI was within the bioequivalence limits of 80.00 to 125.00%.

[4] = pharmacokinetics in healthy subjects (label); type: in vivo, human
P-gp = P-gp (Homo sapiens, UniProt P08183); assay: transporter inhibition, in vitro; type: in vitro ADME; settings: at clinically relevant concentrations
OATPIB1 = OATPIB1 (Homo sapiens, UniProt Q9Y6L6); assay: transporter inhibition, in vitro; type: in vitro ADME; settings: at clinically relevant concentrations
CYP1A2 [5] = molecular target: T2, CYP1A2; assay: enzyme inhibition, in vitro; type: in vitro ADME
CYP2C19 = CYP2C19 (Homo sapiens, UniProt P33261); assay: enzyme inhibition, in vitro; type: in vitro ADME
CYP2D6 [6] = molecular target: T1, CYP2D6; assay: enzyme inhibition, in vitro; type: in vitro ADME
pregnant rats = assay: embryo-fetal development studies in rats; type: in vivo, rat
Procedure: In the pilot study, maternal toxicity and embryo-fetal developmental effects were observed. Maternal toxicity (reduced body weight gain) occurred at 150 and 300 mg/kg/day doses. Increased post-implantation loss occurred at 50 and 300 mg/kg/day.

[7] = system: bacterial mutagenicity (Ames); assay: in vitro bacterial mutagenicity (Ames) assay; type: cell-based
[8] = system: human peripheral blood lymphocytes (HPBL); assay: in vitro chromosome aberration assay; type: cell-based
rats [9] = assay: combined male and female rat fertility study; type: in vivo
From the text: In a combined male and female rat fertility study, belumosudil-treated male animals were mated with untreated females, or untreated males were mated with belumosudil-treated females.

dogs = assay: general toxicology studies, dogs; type: in vivo, dog
rats [10] = assay: general toxicology studies, rats; type: in vivo, rat
[11] = single oral dose of radiolabeled belumosudil

T2 sequence (P05177 whole entry): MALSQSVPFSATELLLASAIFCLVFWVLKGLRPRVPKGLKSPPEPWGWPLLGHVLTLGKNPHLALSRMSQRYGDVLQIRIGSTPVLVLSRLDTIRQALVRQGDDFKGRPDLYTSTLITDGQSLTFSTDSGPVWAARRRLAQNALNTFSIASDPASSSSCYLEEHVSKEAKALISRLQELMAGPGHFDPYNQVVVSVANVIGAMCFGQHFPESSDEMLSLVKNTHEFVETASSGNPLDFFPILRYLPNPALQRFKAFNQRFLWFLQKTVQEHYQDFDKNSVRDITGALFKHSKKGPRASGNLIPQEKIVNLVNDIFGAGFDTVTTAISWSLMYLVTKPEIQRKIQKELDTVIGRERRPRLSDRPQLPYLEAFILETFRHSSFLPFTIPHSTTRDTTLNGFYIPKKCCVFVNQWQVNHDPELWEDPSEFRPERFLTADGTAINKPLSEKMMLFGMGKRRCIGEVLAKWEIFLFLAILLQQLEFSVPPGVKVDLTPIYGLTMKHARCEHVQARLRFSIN
T1 sequence (P10635 whole entry): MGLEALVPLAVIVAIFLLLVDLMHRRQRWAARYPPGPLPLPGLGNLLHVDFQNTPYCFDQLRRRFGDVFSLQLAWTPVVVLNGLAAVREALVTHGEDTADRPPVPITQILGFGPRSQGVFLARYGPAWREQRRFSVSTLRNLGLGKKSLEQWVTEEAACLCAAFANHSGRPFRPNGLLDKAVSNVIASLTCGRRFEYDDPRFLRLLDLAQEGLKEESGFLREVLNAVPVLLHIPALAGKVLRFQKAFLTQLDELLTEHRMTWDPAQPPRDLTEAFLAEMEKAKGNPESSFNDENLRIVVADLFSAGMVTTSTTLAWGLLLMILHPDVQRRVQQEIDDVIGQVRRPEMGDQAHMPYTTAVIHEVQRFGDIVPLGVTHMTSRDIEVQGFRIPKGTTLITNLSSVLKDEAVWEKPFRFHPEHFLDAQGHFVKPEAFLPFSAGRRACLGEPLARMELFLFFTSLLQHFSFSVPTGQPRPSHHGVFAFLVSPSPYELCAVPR
CYP3A4, sequence (P08684 whole entry): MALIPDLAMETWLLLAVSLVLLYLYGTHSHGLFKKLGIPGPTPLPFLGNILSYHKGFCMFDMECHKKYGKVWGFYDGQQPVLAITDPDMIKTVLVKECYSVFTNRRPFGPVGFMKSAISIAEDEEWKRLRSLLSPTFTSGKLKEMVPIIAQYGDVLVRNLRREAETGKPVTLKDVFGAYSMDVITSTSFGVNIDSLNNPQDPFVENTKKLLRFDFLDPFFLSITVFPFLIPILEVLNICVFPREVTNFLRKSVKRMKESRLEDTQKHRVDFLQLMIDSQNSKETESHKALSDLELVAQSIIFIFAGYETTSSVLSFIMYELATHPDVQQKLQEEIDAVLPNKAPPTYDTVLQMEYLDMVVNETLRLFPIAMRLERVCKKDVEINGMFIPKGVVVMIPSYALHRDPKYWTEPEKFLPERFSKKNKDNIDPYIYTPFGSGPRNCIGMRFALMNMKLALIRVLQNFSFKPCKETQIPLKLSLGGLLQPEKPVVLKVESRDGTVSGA
P-gp, sequence (P08183 whole entry): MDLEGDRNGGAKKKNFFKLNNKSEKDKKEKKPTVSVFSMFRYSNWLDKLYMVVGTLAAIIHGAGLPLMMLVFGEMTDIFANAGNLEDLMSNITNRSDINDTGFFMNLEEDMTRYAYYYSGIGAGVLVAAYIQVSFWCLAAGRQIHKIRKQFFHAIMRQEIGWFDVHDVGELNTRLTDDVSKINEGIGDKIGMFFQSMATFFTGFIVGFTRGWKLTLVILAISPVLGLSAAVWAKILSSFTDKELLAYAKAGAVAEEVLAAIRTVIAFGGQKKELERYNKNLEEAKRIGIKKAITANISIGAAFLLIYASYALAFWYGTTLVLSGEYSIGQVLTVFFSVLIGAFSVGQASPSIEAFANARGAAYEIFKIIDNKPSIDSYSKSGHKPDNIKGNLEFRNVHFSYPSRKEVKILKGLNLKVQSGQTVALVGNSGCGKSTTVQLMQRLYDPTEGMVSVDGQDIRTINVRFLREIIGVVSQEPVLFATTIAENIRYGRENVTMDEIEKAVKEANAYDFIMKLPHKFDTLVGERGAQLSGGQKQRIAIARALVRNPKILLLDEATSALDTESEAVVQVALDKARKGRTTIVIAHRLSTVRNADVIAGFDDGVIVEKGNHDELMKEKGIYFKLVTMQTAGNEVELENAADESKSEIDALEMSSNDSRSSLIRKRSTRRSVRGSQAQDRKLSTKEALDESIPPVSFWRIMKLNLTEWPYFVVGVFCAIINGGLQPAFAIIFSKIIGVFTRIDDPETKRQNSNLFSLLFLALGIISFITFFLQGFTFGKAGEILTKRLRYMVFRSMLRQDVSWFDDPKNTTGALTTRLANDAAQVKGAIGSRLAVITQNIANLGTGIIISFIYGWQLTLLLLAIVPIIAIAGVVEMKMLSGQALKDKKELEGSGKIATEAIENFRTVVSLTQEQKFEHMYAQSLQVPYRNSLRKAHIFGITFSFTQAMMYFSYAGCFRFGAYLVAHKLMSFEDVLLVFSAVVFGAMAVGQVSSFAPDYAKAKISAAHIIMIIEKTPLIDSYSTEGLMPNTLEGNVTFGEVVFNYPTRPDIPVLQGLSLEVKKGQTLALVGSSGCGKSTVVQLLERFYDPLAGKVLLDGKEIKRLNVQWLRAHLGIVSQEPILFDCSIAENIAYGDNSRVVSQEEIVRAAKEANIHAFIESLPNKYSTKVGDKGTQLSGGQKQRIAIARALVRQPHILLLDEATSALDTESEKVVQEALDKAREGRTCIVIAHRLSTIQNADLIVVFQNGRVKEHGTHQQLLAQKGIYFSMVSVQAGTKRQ
OATPIB1, sequence (Q9Y6L6 whole entry): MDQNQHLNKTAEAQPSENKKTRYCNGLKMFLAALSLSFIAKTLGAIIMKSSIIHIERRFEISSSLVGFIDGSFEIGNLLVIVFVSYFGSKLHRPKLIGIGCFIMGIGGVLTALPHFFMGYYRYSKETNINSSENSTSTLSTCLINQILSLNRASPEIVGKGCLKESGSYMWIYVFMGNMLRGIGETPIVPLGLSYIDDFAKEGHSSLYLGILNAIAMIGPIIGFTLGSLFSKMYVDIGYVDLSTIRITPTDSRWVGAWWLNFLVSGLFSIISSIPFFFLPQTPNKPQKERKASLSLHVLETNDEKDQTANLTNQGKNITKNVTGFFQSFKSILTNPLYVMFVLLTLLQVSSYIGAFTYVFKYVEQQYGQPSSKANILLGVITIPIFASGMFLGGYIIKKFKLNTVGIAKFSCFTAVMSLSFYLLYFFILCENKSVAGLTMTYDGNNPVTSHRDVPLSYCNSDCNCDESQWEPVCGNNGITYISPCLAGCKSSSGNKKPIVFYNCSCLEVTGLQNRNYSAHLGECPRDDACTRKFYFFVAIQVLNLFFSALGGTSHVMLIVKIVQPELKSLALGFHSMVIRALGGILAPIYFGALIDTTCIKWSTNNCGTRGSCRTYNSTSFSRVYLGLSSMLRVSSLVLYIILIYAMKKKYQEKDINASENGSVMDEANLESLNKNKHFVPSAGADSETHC
CYP2C19, sequence (P33261 whole entry): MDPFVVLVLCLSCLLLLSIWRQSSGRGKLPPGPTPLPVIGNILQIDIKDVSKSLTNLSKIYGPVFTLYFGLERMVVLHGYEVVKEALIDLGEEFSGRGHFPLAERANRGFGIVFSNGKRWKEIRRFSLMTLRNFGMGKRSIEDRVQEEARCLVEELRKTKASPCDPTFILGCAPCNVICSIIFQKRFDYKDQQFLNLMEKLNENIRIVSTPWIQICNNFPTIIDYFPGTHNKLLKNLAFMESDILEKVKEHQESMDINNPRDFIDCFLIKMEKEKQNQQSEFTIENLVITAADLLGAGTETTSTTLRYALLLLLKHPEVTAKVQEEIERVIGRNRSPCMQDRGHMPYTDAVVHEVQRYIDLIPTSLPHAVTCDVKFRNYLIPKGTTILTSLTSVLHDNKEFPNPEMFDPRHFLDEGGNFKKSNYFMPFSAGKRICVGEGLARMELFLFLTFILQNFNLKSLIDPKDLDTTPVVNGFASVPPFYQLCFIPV
CYP2C8, sequence (P10632 whole entry): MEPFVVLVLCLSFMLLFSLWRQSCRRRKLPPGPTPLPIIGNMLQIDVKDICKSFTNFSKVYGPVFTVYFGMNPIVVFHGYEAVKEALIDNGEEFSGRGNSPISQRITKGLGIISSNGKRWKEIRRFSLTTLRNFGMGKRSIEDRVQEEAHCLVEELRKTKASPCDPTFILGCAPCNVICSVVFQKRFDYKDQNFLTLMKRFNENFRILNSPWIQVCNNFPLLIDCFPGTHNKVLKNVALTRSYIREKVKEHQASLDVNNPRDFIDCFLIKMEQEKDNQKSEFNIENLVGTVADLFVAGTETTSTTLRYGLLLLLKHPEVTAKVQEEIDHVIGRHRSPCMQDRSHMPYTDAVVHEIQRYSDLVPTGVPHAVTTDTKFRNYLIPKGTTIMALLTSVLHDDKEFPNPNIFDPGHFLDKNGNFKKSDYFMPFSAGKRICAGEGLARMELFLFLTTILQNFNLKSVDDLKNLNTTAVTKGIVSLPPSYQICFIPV

Structure (SMILES): CC(C)NC(=O)COc1cccc(-c2nc(Nc3ccc4[nH]ncc4c3)c3ccccc3n2)c1 [Belumosudil, 2-{3-[4-(1H-indazol-5-ylamino)-2-quinazolinyl]phenoxy}-N-(propan-2-yl) acetamide]
- share of belumosudil metabolism (CYP3A4): 41.9%
- share of belumosudil metabolism (CYP2D6 [1]): 21.7%
- share of belumosudil metabolism (CYP2C8): 14.2%
- share of belumosudil metabolism (CYP1A2 [2]): < 5%
- solubility (pH-dependent solubility; pH 1.08, simulated gastric fluid): 11 µg/mL (≈ 24.3 µM)
- solubility (pH-dependent solubility; pH 1.6, simulated gastric fluid): 1640 µg/mL (≈ 3630 µM)
- solubility (pH-dependent solubility; pH 6.5, aqueous buffer): 3 µg/mL (≈ 6.63 µM)
- solubility (pH-dependent solubility; simulated gastric fluid, pH 2.0): 1430 µg/mL (≈ 3170 µM)
- treatment-emergent AEs (TEAEs) reported (healthy male subjects; Periods 1, 2, and 4): 33
- AEs considered possibly related to belumosudil (healthy male subjects; all mild: abdominal distension, hot flush, fatigue): Three
- serious AE (SAE) (healthy male subjects; ankle fracture after belumosudil+itraconazole, considered unrelated): One
- subjects reporting gastrointestinal disorders (healthy male subjects; belumosudil alone): 3 subjects
- subjects reporting gastrointestinal disorders (healthy male subjects; belumosudil+itraconazole): 5 subjects
- deaths or AEs leading to subject withdrawal (healthy male subjects; in vivo): no deaths or AEs leading to subject withdrawal
- safety profile (healthy male subjects; with and without perpetrator compounds): unremarkable; also recorded: safe, and no notable adverse events were reported
- GMRs fed vs fasted for Cmax and AUC ([3]; 500 mg capsules): above 125%
- AUC(0-t) ([3]; fasted, read-out: AUC0-24, arithmetic mean (SD)): 7980 ng·h/mL
- AUC(0-t) ([3]; fasted, read-out: AUC0-24, geometric mean (geometric CV %)): 7600 ng·h/mL
- AUC(0-inf) ([3]; fasted, read-out: AUCinf, arithmetic mean (SD)): 8700 ng·h/mL
- AUC(0-inf) ([3]; fasted, read-out: AUCinf, geometric mean (geometric CV %)): 8310 ng·h/mL
- AUC(0-t) ([3]; fasted, read-out: AUClast, arithmetic mean (SD)): 8590 ng·h/mL
- AUC(0-t) ([3]; fasted, read-out: AUClast, geometric mean (geometric CV %)): 8190 ng·h/mL
- Cmax ([3]; fasted, read-out: Cmax, arithmetic mean (SD)): 1580 ng/mL
- Cmax ([3]; fasted, read-out: Cmax, geometric mean (geometric CV %)): 1500 ng/mL
- Tmax ([3]; fasted): 2 h
- half-life ([3]; fasted, read-out: t1/2, arithmetic mean (SD) (converted)): 9.5 h
- half-life ([3]; fasted, read-out: t1/2, geometric mean (geometric CV %) (converted)): 9 h
- AUC(0-t) ([3]; fed, read-out: AUC0-24, arithmetic mean (SD)): 25100 ng·h/mL
- AUC(0-t) ([3]; fed, read-out: AUC0-24, geometric mean (geometric CV %)): 23300 ng·h/mL
- AUC(0-inf) ([3]; fed, read-out: AUCinf, arithmetic mean (SD)): 26900 ng·h/mL
- AUC(0-inf) ([3]; fed, read-out: AUCinf, geometric mean (geometric CV %)): 25100 ng·h/mL
- AUC(0-t) ([3]; fed, read-out: AUClast, arithmetic mean (SD)): 26200 ng·h/mL
- AUC(0-t) ([3]; fed, read-out: AUClast, geometric mean (geometric CV %)): 24400 ng·h/mL
- Cmax ([3]; fed, read-out: Cmax, arithmetic mean (SD)): 4280 ng/mL
- Cmax ([3]; fed, read-out: Cmax, geometric mean (geometric CV %)): 3780 ng/mL
- Tmax ([3]; fed): 4 h
- half-life ([3]; fed, read-out: t1/2, arithmetic mean (SD) (converted)): 8 h
- half-life ([3]; fed, read-out: t1/2, geometric mean (geometric CV %) (converted)): 7.9 h
- increase in AUC with high-fat and high-calorie meal vs fasted ([4]; single dose): 2 times
- increase in Cmax with high-fat and high-calorie meal vs fasted ([4]; single dose): 2.2 times
- radioactivity recovered in feces [4, 11]: 85%
- radioactivity recovered in urine [4, 11]: less than 5%
- recovered in feces as unchanged [4, 11]: 30%
- P-gp inhibition (P-gp): inhibits
- OATPIB1 inhibition (OATPIB1): inhibits
- CYP1A2 inhibition (CYP1A2 [5]): inhibitor
- CYP2C19 inhibition (CYP2C19): inhibitor
- CYP2D6 inhibition (CYP2D6 [6]): inhibitor
- doses with fetal malformations (pregnant rats; pilot study, oral, period of organogenesis): ≥ 50 mg/kg/day
- maternal exposures (AUC) with adverse developmental outcomes, times human exposure at recommended dose (pregnant rats; rat): ≥ 3 times
- genotoxicity [7]: not genotoxic
- genotoxicity [8]: not genotoxic
- dose with increased pre-or post-implantation loss and decreased number of viable embryos (rats [9]; female rats, treated or mated with treated males): 275 mg/kg/day
- dose with abnormal sperm findings and testes/epididymis organ changes (rats [9]; male rats): 275 mg/kg/day
- dose with reduced fertility (rats [9]; treated males or females): 275 mg/kg/day
- dose with spermatozoa degeneration (dogs): 35 mg/kg/day
- dose with decreased follicular development in ovaries (rats [10]): 275 mg/kg/day
